# According to US20240082222A1, “4-CHLORO-N-[2-[(4-CHLOROPHENYL)METHYL]-3-OXO-1,2,4-THIADIAZOL-5-YL]BENZAMIDE FOR USE IN MEDICINE” (Betagenon AB, priority 2021, published 2024):
# Values joined by “and” are separate entries in the source; they are usually repeats but may differ in a detail not shown here. Equal entries are not always repeated. Structures can show the parent of a compound that is named as a salt. Where two headings read alike, the source gives them in different places.
# Experiment: Pharmacokinetic study in humans, sodium salt in enteric capsules, single and multiple dose (Example 2)
# Type: in vivo, human
# Settings: for AUClast_D / Cmax D / AUC_TAU_D: dose-normalised; for AUC(0-t) / Cmax / Tmax / AUC / concentration at 24 h: human, plasma, oral; for Cmax: read-out: Cmax; for Tmax: read-out: Tmax; for concentration at 24 h: read-out: Clast
# Protocol: An open, randomised, parallel-group study in healthy volunteers (hereafter referred to as subjects) was conducted to evaluate the exposure of 4-chloro-N-[2-[(4-chlorophenyl)methyl]-3-oxo-1,2,4-thiadiazol-5-yl]benzamide after single and multiple dose administration of 3 dose levels of the sodium salt of 4-chloro-N-[2-[(4-chlorophenyl)methyl]-3-oxo-1,2,4-thiadiazol-5-yl]benzamide and to evaluate combination with dapagliflozin at steady state.
# For the study, Vcaps enteric capsules, size 0, were individually filled with 200 mg of milled test material together with 2 mg of sodium docusate, 125 mg of mannitol and 6.5 mg of sodium lauryl sulfate. […]
# A screening visit (Visit 1) was performed within 28 days before randomisation and the start of IMP administration. The subjects were confined to the research clinic from the evening before Day 1 (Visit 2; Day—1). […]
# Pre-dose safety assessments as well as pre- and post-dose PK assessments were performed. The subjects left the clinic after the last PK-sample on Day 1 and returned for a 24 h PK sample and dosing on Day 2 (Visit 3).
# Subjects self-administered the test material at home from Day 3 to Day 15. A telephone visit to check compliance, AE status and use of concomitant medications will be performed on Day 8 (Visit 4).
# The subjects returned to the clinic on Days 16 and 17 (Visits 5 and 6), for PK sampling and AE assessment. Visit 6 continued in the evening of Day 17, when the subjects were confined to the clinic until Day 18. On Day 18, pre- and post-dose PK and safety assessments were performed. The subjects left the clinic after the last PK sample on Day 18 and returned for a 24 h PK sample and dosing on Day 19 (Visit 7).
# On Day 19 (Visit 7) subjects began co-administration of the test material and dapagliflozin (Forxiga), 10 mg per day for 7 days (Day 19 to Day 25). The subjects returned to the clinic on Day 25 (Visit 8) for final dosing, PK and safety assessments. A final end-of-study visit (Visit 9) for follow-up of safety assessments was conducted 28 days (+14 days) after Visit 8 or after early withdrawal.
# Venous blood samples (approximately 5 mL) for the determination of plasma concentrations of 4-chloro-N-[2-[(4-chlorophenyl)methyl]-3-oxo-1,2,4-thiadiazol-5-yl]benzamide after administration of the test material were collected through an indwelling venous catheter on Days 1, 2, 16 to 19 and 25.
# The blood samples were collected in pre-labelled Li-Heparin tubes. All the collected blood samples were be centrifuged at 1500 G for 10 minutes to separate plasma within 60 minutes from the sample is drawn. The separated plasma from each blood sample was be divided into 2 aliquots in pre-labelled polypropylene cryotubes (A and B samples, approximately 750 μL in each tube) and frozen at <−70° C. On Day 25, the plasma was divided in to 3 aliquots of at least 500 μL (A and B samples for the test material, and 1 sample for potential future analysis of dapagliflozin).
# Samples for determination of plasma concentrations of 4-chloro-N[2-[(4-chlorophenyl)methyl]-3-oxo-1,2,4-thiadiazol-5-yl]benzamide were analysed by Lablytica Life Science AB, Uppsala, Sweden by means of a validated LS-MS/MS method.
# The data of plasma concentration to respective time points for the analyte (4-chloro-N-[2-[(4-chlorophenyl)methyl]-3-oxo-1,2,4-thiadiazol-5-yl]benzamide) were used for the pharmacokinetic analysis. Pharmacokinetic analysis was performed using non-compartmental analysis (NCA) module of Phoenix WinNonlin 8.1 software to determine the following pharmacokinetic parameters.
# After single dose administration of test material: • AUC0-24, Cmax, Tmax and dose proportionality (based on AUC0-24 and Cmax) (secondary endpoints). […]
# [1] = 2000 mg Dose Group, capsule once daily, Day 18, Mean
# [2] = 2000 mg Dose Group, capsule once daily, Day 18, Median
# [3] = capsule once daily, Day 18, individual subjects, listed as test material
# [4] = 200 mg, mean, dose group 200, capsule, Day 1
# [5] = 200 mg, mean, dose group 200, capsule, Day 18
# [6] = 400 mg, 400 mg Dose Group, capsules once daily, Day 18, Geometric Mean
# [7] = 400 mg, 400 mg Dose Group, capsules once daily, Day 18, Mean
# [8] = 400 mg, 400 mg Dose Group, capsules once daily, Day 18, Median
# [9] = 400 mg, 400 mg Dose Group, capsules once daily, Day 18, individual subjects
# [10] = 400 mg, mean, dose group 400, capsule, Day 1
# [11] = 400 mg, mean, dose group 400, capsule, Day 18
# [12] = 800 mg, 800 mg Dose Group, capsules once daily, Day 18, Geometric Mean
# [13] = 800 mg, 800 mg Dose Group, capsules once daily, Day 18, Mean
# [14] = 800 mg, 800 mg Dose Group, capsules once daily, Day 18, Median
# [15] = 800 mg, 800 mg Dose Group, capsules once daily, Day 18, individual subjects
# [16] = 800 mg, mean, dose group 800, capsule, Day 1
# [17] = 800 mg, mean, dose group 800, capsule, Day 18
# [18] = 2000 mg, 2000 mg Dose Group, capsule once daily, Day 18, Geometric Mean
# [19] = 2000 mg, 2000 mg Dose Group, capsule once daily, Day 18, Mean
# [20] = 2000 mg, 2000 mg Dose Group, capsule once daily, Day 18, Median
compound,measurement,setting,value
"O=C(Nc1nc(=O)n(Cc2ccc(Cl)cc2)s1)c1ccc(Cl)cc1 [Compound of formula II, sodium salt of 4-chloro-N-[2-[(4-chlorophenyl)methyl]-3-oxo-1,2,4-thiadiazol-5-yl]benzamide]",AUClast_D,[1],5.305 µg·h/mL/mg
same,Cmax D,[1],0.2493 µg/mL/mg
same,AUC_TAU_D,[2],4.752 µg·h/mL/mg
same,AUClast_D,[2],4.888 µg·h/mL/mg
same,Cmax D,[2],0.2403 µg/mL/mg
same,AUC_TAU_D,"2000 mg Dose Group, capsule once daily, Day 18, individual subjects, listed as test material",5.67 µg·h/mL/mg and 4.2 µg·h/mL/mg and 8.01 µg·h/mL/mg and 4.01 µg·h/mL/mg and 4.75 µg·h/mL/mg and 3.87 µg·h/mL/mg and 5.06 µg·h/mL/mg
same,AUClast_D,[3],5.65 µg·h/mL/mg and 6.98 µg·h/mL/mg and 4.19 µg·h/mL/mg and 7.98 µg·h/mL/mg and 4 µg·h/mL/mg and 4.74 µg·h/mL/mg and 3.86 µg·h/mL/mg and 5.04 µg·h/mL/mg
same,Cmax D,[3],0.261 µg/mL/mg and 0.31 µg/mL/mg and 0.21 µg/mL/mg and 0.36 µg/mL/mg and 0.201 µg/mL/mg and 0.231 µg/mL/mg and 0.173 µg/mL/mg and 0.25 µg/mL/mg
same,AUC(0-t),[4],87.4 µg·h/mL
same,Cmax,[4],7.19 µg/mL
same,Tmax,[4],15 h
same,AUC(0-t),[5],1060 µg·h/mL
same,Cmax,[5],49.9 µg/mL
same,Tmax,[5],8.03 h
same,Cmax,"200 mg, repeated dosing, study of Example 2",~50 µg/mL
same,AUC,[6],1500 µg·h/mL
same,AUC(0-t),[6],1520 µg·h/mL
same,Cmax,[6],69.6 µg/mL
same,Tmax,[6],4.27 h
same,AUC,[7],1530 µg·h/mL
same,AUC(0-t),[7],1540 µg·h/mL
same,Cmax,[7],70.8 µg/mL
same,Tmax,[7],8.31 h
same,AUC,[8],1400 µg·h/mL
same,AUC(0-t),[8],1480 µg·h/mL
same,Cmax,[8],66.1 µg/mL
same,Tmax,[8],5 h
same,AUC,[9],1210 µg·h/mL
same,AUC(0-t),[9],1210 µg·h/mL
same,Cmax,[9],56.2 µg/mL
same,AUC(0-t),[10],158 µg·h/mL
same,Cmax,[10],10.6 µg/mL
same,Tmax,[10],15.4 h
same,AUC(0-t),[11],1540 µg·h/mL
same,Cmax,[11],70.8 µg/mL
same,Tmax,[11],8.31 h
same,AUC,[12],2530 µg·h/mL
same,AUC(0-t),[12],2590 µg·h/mL
same,concentration at 24 h,[12],108 µg/mL
same,Cmax,[12],118 µg/mL
same,AUC,[13],2560 µg·h/mL
same,AUC(0-t),[13],2620 µg·h/mL
same,concentration at 24 h,[13],110 µg/mL
same,Cmax,[13],118 µg/mL
same,Tmax,[13],11.5 h
same,AUC,[14],2730 µg·h/mL
same,AUC(0-t),[14],2670 µg·h/mL
same,concentration at 24 h,[14],115 µg/mL
same,Cmax,[14],122 µg/mL
same,Tmax,[14],9.99 h
same,AUC,[15],1810 µg·h/mL
same,AUC(0-t),[15],1800 µg·h/mL
same,concentration at 24 h,[15],73.7 µg/mL
same,Cmax,[15],87.3 µg/mL
same,AUC(0-t),[16],340 µg·h/mL
same,Cmax,[16],22.8 µg/mL
same,Tmax,[16],15.6 h
same,AUC(0-t),[17],2620 µg·h/mL
same,Cmax,[17],118 µg/mL
same,Tmax,[17],11.5 h
same,AUC,[18],987 µg·h/mL
same,AUC(0-t),[18],1030 µg·h/mL
same,Cmax,[18],48.6 µg/mL
same,AUC,[19],1020 µg·h/mL
same,AUC(0-t),[19],1060 µg·h/mL
same,concentration at 24 h,[19],44 µg/mL
same,Cmax,[19],49.9 µg/mL
same,Tmax,[19],8.03 h
same,AUC,[20],950 µg·h/mL
same,AUC(0-t),[20],978 µg·h/mL
same,Cmax,[20],48.1 µg/mL
same,Tmax,[20],6.5 h
same,peak blood plasma concentration,repeated dosing of 200 mg in the form of a capsule,≥ 50 µg/mL
same,blood plasma concentration versus same amount of free base form,"repeated dosing, 200 to 1000 mg/day",approximately five-fold higher
